The target of the first assay is T1, recombinant human mGluR2 (Homo sapiens, UniProt Q14416).
T1 construct: expressed in transfected cells
T1 sequence (Q14416 19-872): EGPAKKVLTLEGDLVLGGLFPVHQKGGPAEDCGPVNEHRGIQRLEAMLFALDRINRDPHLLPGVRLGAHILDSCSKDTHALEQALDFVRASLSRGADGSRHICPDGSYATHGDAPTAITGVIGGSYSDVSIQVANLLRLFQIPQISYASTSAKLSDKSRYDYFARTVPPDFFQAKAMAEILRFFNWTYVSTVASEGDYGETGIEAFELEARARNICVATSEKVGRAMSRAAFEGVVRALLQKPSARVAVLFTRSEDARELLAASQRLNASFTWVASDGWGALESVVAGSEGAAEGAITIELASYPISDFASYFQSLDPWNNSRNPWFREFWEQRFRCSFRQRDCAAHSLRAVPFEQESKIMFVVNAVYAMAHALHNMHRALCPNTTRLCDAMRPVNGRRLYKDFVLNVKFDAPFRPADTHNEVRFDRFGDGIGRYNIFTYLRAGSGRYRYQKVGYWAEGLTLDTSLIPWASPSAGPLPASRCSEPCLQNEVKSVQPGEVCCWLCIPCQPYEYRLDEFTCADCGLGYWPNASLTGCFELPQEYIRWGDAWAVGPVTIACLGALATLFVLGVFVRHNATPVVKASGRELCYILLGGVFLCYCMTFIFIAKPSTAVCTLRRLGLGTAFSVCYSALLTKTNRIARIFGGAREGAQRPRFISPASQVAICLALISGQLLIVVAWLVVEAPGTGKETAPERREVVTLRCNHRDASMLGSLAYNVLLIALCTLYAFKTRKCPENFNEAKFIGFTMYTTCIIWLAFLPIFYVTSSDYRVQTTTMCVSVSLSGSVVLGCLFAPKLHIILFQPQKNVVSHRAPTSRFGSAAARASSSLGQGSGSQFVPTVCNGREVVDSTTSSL
Put plainly: FLIPR Ca2+ mobilization assay, potentiation of mGluR2 receptor. Type of assay: cell-based. The following applies: CHO dhfr- cells expressing human mGluR2 and Gα16; potentiation after EC20 glutamate (900 nM); read-out: FLIPR EC50. As to the method: Activity in potentiating the mGluR2 receptor may be determined as follows. The compounds of the present invention are tested in a fluorescence laser imaging plate reader (FLIPR) based assay. This assay is a common functional assay to monitor Ca^2+ mobilization in whole cells expressing recombinant receptor coupled with a promiscuous G-protein. CHO dhfr-cells stably expressing recombinant human mGluR2 and Gα16 loaded with Fluo-4 AM (Invitrogen, Carlsbad Calif.) are treated with dose responses of compounds and the Ca^2+ response is monitored on a FLIPR384 (Molecular Devices, Sunnydale Calif.) for agonist activity. The potentiation response is monitored after a subsequent addition of an EC20 concentration of glutamate (900 nM). The maximum calcium response at each concentration of compound for agonist or potentiation are plotted as dose responses and the curves are fitted with a four parameters logistic equation giving EC50 and Hill coefficient using the iterative non linear curve fitting software program.
A word on the EC50: it is the concentration giving half of the maximal effect. Regarding `Cn1c(=O)n(CC(C)(C)C)c2ccc(-c3cc(Oc4cccc(C#N)n4)ccc3C#N)c(F)c21` [Example 8-5, 6-{4-cyano-3-[1-(2,2-dimethylpropyl)-4-fluoro-3-methyl-2-oxo-2,3-dihydro-1H-benzimidazol-5-yl]phenoxy}pyridine-2-carbonitrile], the EC50 is 40 nM. In the case of `Cn1c(=O)n(CC(C)(C)C)c2ccc(-c3cccc(C(C)(O)c4ccccc4)n3)cc21` (stereo not shown) [Example 10-5, 1-(2,2-dimethylpropyl)-5-[6-(1-hydroxy-1-phenylethyl)pyridin-2-yl]-3-methyl-1,3-dihydro-2H-benzimidazol-2-one], the EC50 was 225 nM. Take `Cn1c(=O)n(CC(C)(C)C)c2ccc(-c3ccc4c(c3)CN(C(=O)OC(C)(C)C)CC4)cc21` [Example 1-187, tert-butyl 7-[1-(2,2-dimethylpropyl)-3-methyl-2-oxo-2,3-dihydro-1H-benzimidazol-5-yl]-3,4-dihydroisoquinoline-2(1H)-carboxylate]: the EC50 is 182 nM. Take `Cn1c(=O)n(CC(C)(C)C)c2ccc(-c3cncc(Oc4ccc(C#N)nc4)n3)cc21` [Example 5-22, 5-({6-[1-(2,2-dimethylpropyl)-3-methyl-2-oxo-2,3-dihydro-1H-benzimidazol-5-yl]pyrazin-2-yl}oxy)pyridine-2-carbonitrile]: the EC50 is 364 nM. `Cn1c(=O)n(CC(C)(C)C)c2ccc(-c3ncccc3C(F)(F)F)cc21` [Example 1-148, 1-(2,2-dimethylpropyl)-3-methyl-5-[3-(trifluoromethyl)pyridin-2-yl]-1,3-dihydro-2H-benzimidazol-2-one]: the EC50 was 126 nM.

Regarding `Cn1c(=O)n(-c2cccc(C(F)(F)F)c2)c2ccc(-c3ccccc3C#N)cc21` [Example 6-9, 2-{3-methyl-2-oxo-1-[3-(trifluoromethyl)phenyl]-2,3-dihydro-1H-benzimidazol-5-yl}benzonitrile], the EC50 came out at 45 nM. On to `Cn1c(=O)n(CC2CC2)c2ccc(-c3ccncc3C(F)(F)F)c(F)c21` [Example 7-47, 1-(cyclopropylmethyl)-4-fluoro-3-methyl-5-[3-(trifluoromethyl)pyridin-4-yl]-1,3-dihydro-2H-benzimidazol-2-one], for which the EC50 is 77 nM. In the case of `Cn1c(=O)n(CC(C)(C)C)c2ccc(-c3cccc(C(O)c4ccccc4)c3)cc21` (stereo not shown) [Example 10-3, 1-(2,2-dimethylpropyl)-5-{3-[hydroxy(phenyl)methyl]phenyl}-3-methyl-1,3-dihydro-2H-benzimidazol-2-one], the EC50 turned out to be 129 nM. Consider `Cc1ccc(-c2ccc3c(c2)n(C)c(=O)n3CC(C)(C)C)c(C#N)c1` [Example 1-94, 2-[1-(2,2-dimethylpropyl)-3-methyl-2-oxo-2,3-dihydro-1H-benzimidazol-5-yl]-5-methylbenzonitrile], for which the EC50 is 41 nM. On the same count and under the same terms, the figure for `Cn1c(=O)n(CC(C)(C)C)c2ccc(-c3cccc(Oc4cc(C(F)(F)F)ccn4)c3)cc21` [Example 2-4, 1-(2,2-dimethylpropyl)-3-methyl-5-(3-{[4-(trifluoromethyl)pyridin-2-yl]oxy}phenyl)-1,3-dihydro-2H-benzimidazol-2-one] is 496 nM. Same read-out and setting: the result for `COc1ncc(-c2ccc3c(c2)n(C)c(=O)n3CC(C)(C)C)c(OC)n1` [Example 1-61, 5-(2,4-dimethoxypyrimidin-5-yl)-1-(2,2-dimethylpropyl)-3-methyl-1,3-dihydro-2H--benzimidazol-2-one] reads 2660 nM; that for `Cn1c(=O)n(CC(C)(C)C)c2ccc(-c3cccc(OCc4ccccc4C(F)(F)F)c3)cc21` [Example 3-3, 1-(2,2-dimethylpropyl)-3-methyl-5-(3-{[2-(trifluoromethyl)benzyl]oxy}phenyl)-1,3-dihydro-2H-benzimidazol-2-one], 3650 nM; that for `CN1CCCC(Oc2cccc(-c3ccc4c(c3)n(C)c(=O)n4CC(C)(C)C)n2)C1` (stereo not shown) [Example 5-12, 1-(2,2-dimethylpropyl)-3-methyl-5-{6-[(1-methylpiperidin-3-yl)oxy]pyridin-2-yl}-1,3-dihydro-2H-benzimidazol-2-one], 3350 nM. Take `Cn1c(=O)n(CC(C)(C)C)c2ccc(-c3cccc(Oc4ccccc4)c3)cc21` [Example 4-8, 1-(2,2-dimethylpropyl)-3-methyl-5-(3-phenoxyphenyl)-1,3-dihydro-2H-benzimidazol-2-one]: the EC50 was 1250 nM.

On to `N#CCn1c(=O)n(CC2CC2)c2ccc(-c3ccccc3)cc21` [Example 1-9, [3-(cyclopropylmethyl)-2-oxo-6-phenyl-2,3-dihydro-1H-benzimidazol-1-yl]acetonitrile], for which the EC50 was 264 nM. `CN1CCN(c2ccc(-c3ccc4c(c3F)n(C)c(=O)n4CC3(C)CC3)cn2)CC1` [Example 7-19, 4-fluoro-3-methyl-1-[(1-methylcyclopropyl)methyl]-5-[6-(4-methylpiperazin-1-yl)pyridin-3-yl]-1,3-dihydro-2H-benzimidazol-2-one]: the EC50 was 781 nM. In the case of `Cn1c(=O)n(CC(C)(C)C)c2ccc(-c3cc(C#N)cc(Oc4ccnc(C#N)c4)c3)cc21` [Example 2-38, 4-{3-cyano-5-[1-(2,2-dimethylpropyl)-3-methyl-2-oxo-2,3-dihydro-1H-benzimidazol-5-yl]phenoxy}pyridine-2-carbonitrile], the EC50 came out at 41 nM.

Staying with this assay, now noted: potentiation after EC20 glutamate (900 nM); read-out: EC50 potentiating the mGluR2 receptor in the FLIPR assay.
Regarding `Cn1c(=O)n(C2CCN(c3ncccn3)CC2)c2ccc(-c3ccccc3C(N)=O)cc21` [Example 1-206, 2-[3-methyl-2-oxo-1-(1-pyrimidin-2-ylpiperidin-4-yl)-2,3-dihydro-1H-benzimidazol-5-yl]benzamide], the EC50 is 20000 nM.

For `Cc1ccccc1-c1ccc2c(c1)n(C)c(=O)n2C1CCNCC1` [Example 1-202, 3-methyl-5-(2-methylphenyl)-1-piperidin-4-yl-1,3-dihydro-2H-benzimidazol-2-one], the EC50 was over 30000 nM. For the compound `Cc1ccccc1-c1ccc2c(c1)n(C)c(=O)n2C1CCN(c2ncccn2)CC1` [Example 1-201, 3-methyl-5-(2-methylphenyl)-1-(1-pyrimidin-2-ylpiperidin-4-yl)-1,3-dihydro-2H-benzimidazol-2-one], the EC50 is 12000 nM. In the case of `Cn1c(=O)n(C2CCNCC2)c2ccc(-c3ccccc3C(N)=O)cc21` [Example 1-203, 2-(3-methyl-2-oxo-1-piperidin-4-yl-2,3-dihydro-1H-benzimidazol-5-yl)benzamide], the EC50 is over 30000 nM. Take `Cc1ccccc1-c1ccc2c(c1)n(C)c(=O)n2C1CCN(C(=O)OC(C)(C)C)CC1` [Example 1-205, tert-butyl 4-[3-methyl-5-(2-methylphenyl)-2-oxo-2,3-dihydro-1H-benzimidazol-1-yl]piperidine-1-carboxylate]: the EC50 is over 30000 nM.

Source of the values: US8993779B2, “Positive allosteric modulators of MGLUR2” (Merck Sharp & Dohme Corp., priority 2010, dated 2015).
